This note sets out measurements from patent US20260184707A1, “PHARMACEUTICAL COMPOUNDS FOR THE TREATMENT OF COMPLEMENT MEDIATED DISORDERS” (ALEXION PHARMACEUTICALS, INC., priority 2022, published 2026).

In the test the target is T1, Human complement C1s enzyme (Homo sapiens, UniProt P09871).
T1 construct: purified from human serum, Complement Technology, Inc; purchased Complement Technology, Inc; host or cells: human serum (plasma-derived native protein)
T1 sequence (P09871 438-688 limits assumed): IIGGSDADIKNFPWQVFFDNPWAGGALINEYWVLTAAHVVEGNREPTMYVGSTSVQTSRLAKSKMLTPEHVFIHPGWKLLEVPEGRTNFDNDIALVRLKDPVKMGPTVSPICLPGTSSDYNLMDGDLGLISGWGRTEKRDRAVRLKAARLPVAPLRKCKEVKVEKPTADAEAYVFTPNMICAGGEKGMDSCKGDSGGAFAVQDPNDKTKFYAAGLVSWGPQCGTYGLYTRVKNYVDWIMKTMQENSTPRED
T1 sequence (P09871 16-437 partner limits assumed): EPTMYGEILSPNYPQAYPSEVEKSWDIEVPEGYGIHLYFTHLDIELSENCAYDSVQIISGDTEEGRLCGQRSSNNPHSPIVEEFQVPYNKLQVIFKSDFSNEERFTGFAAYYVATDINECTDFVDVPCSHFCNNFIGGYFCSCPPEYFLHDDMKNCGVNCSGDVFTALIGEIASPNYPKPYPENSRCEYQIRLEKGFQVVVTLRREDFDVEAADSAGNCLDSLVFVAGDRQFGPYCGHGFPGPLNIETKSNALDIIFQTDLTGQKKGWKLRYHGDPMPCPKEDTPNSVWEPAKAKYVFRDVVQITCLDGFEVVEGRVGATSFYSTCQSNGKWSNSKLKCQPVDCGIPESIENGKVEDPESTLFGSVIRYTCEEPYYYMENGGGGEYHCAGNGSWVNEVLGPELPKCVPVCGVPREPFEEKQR
Briefly: Human C1s enzyme assay. The class given is biochemical. The following applies: human complement C1s enzyme 1.16 nM, substrate Z-L-Lys-SBzl, A405; read-out: IC50 (Stars). Put shortly: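 Thioesterase activity followed colorimetrically (DTNB, A405, 30-s reads) using 100 μM Z-L-Lys-SBzl substrate. Enzyme, human serum-derived C1s at 1.16 nM final, was incubated with test compound for 5 min, room temperature, pH 7.5 Tris buffer with 1 M NaCl. Rate-versus-concentration data fitted by nonlinear regression for IC50.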

Consider `O=C(COc1cc(C(=O)NCc2ccc3oc4ccccc4c3c2)nc(-c2ccccc2)n1)NCc1cc2cnccc2[nH]1` [Compound 268, 6-(2-(((1H-pyrrolo[3,2-c]pyridine-2-yl)methyl)amino)-2-oxoethoxy)-N-(dibenzo[b,d]furan-2-ylmethyl)-2-phenylpyrimidine-4-carboxamide], for which the IC50 – broadly, the concentration needed to halve the response being measured – is above 1000 nM.
The value for `Cc1nc(-c2ccccc2)nc(OCC(=O)NCc2cc3cnccc3[nH]2)c1NCc1ccc2oc3ccccc3c2c1` [Compound 269, N-((1H-pyrrolo[3,2-c]pyridine-2-yl)methyl)-2-((5-((dibenzo[b,d]furan-2-ylmethyl)amino)-6-methyl-2-phenylpyrimidin-4-yl)oxy)acetamide] was above 1000 nM; that for `O=C(Cn1c(N2CC(F)C2)ncc(NCc2ccc3oc4ccccc4c3c2)c1=O)NCc1cc2cnccc2[nH]1` [Compound 270, 2-[5-(dibenzofuran-2-ylmethylamino)-2-(3-fluoroazetidin-1-yl)-6-oxo-pyrimidin-1-yl]-N-(1H-pyrrolo[3,2-c]pyridine-2-ylmethyl)acetamide] was below 100 nM.
The value for `O=C(Cn1c(N2CCC(F)(F)C2)ncc(NCc2ccc3oc4ccccc4c3c2)c1=O)NCc1c[nH]c2ccncc12` [Compound 271, N-((1H-pyrrolo[3,2-c]pyridin-3-yl)methyl)-2-(5-((dibenzo [b,d]furan-2-ylmethyl)amino)-2-(3,3-difluoropyrrolidin-1-yl)-6-oxopyrimidin-1(6H)-yl)acet-amide] was below 100 nM; that for `C[C@H](Nc1cnc(C2=CCCCC2)n(CC(=O)NCc2cc3cnccc3[nH]2)c1=O)c1ccc2oc3ccccc3c2c1` [Compound 272, (S)-N-((1H-pyrrolo[3,2-c]pyr-idin-2-yl)methyl)-2-(2-(cyclo-hex-1-en-1-yl)-5-((1-(dibenzo [b,d]furan-2-yl)ethyl)amino)-6-oxopyrimidin-1(6H)-yl)acet-amide] was below 100 nM; that for `C[C@H](Nc1cnc(-c2ccco2)n(CC(=O)NCc2cc3cnccc3[nH]2)c1=O)c1ccc2oc3ccccc3c2c1` [Compound 273, (S)-N-((1H-pyrrolo[3,2-c]pyr-idin-2-yl)methyl)-2-(5-((1-(dibenzo[b,d]furan-2-yl)ethyl)-amino)-2-(furan-2-yl)-6-oxo-pyrimidin-1(6H)-yl)acetamide] was below 100 nM.
Next, `C[C@H](Nc1cnc(-c2cccnc2)n(CC(=O)NCc2cc3cnccc3[nH]2)c1=O)c1ccc2oc3ccccc3c2c1` [Compound 274, (S)-N-((1H-pyrrolo[3,2-c]pyr-idin-2-yl)methyl)-2-(5-((1-(dibenzo[b,d]furan-2-yl)ethyl)-amino)-6-oxo-2-(pyridin-3-yl)-pyrimidin-1(6H)-yl)acetamide]: below 100 nM; `C[C@@H](Nc1cnc(-c2ccccc2)n(CC(=O)NCc2cc3cnccc3[nH]2)c1=O)c1ccc(-c2ccccc2)cc1` [Compound 275, (R)-N-((1H-pyrrolo[3,2-c]pyr-idin-2-yl)methyl)-2-(5-((1-([1,1′-biphenyl]-4-yl)ethyl)-amino)-6-oxo-2-phenylpyrimi-din-1(6H)-yl)acetamide]: below 100 nM; `C[C@H](Nc1cnc(-c2ccccc2)n(CC(=O)NCc2cc3cnccc3[nH]2)c1=O)c1ccc(-c2ccccc2)cc1` [Compound 276, (S)-N-((1H-pyrrolo[3,2-c]pyr-idin-2-yl)methyl)-2-(5-((1-([1,1′-biphenyl]-4-yl)ethyl)-amino)-6-oxo-2-phenylpyrimi-din-1(6H)-yl)acetamide]: below 100 nM.
As to `C[C@H](Nc1cnc(C2CCCC2)n(CC(=O)NCc2cc3cnccc3[nH]2)c1=O)c1ccc2oc3ccccc3c2c1` [Compound 277, (S)-N-((1H-pyrrolo[3,2-c]pyr-idin-2-yl)methyl)-2-(2-cyclo-pentyl-5-((1-(dibenzo[b,d]furan-2-yl)ethyl)amino)-6-oxo-pyrimidin-1(6H)-yl)acetamide], the IC50 is below 100 nM.
On to `O=C(Cn1c(-c2ccccc2)ncc(NC(=O)c2ccc(-c3ccccc3)s2)c1=O)NCc1ccc(Cl)s1` [Compound 278, N-(1-(2-(((5-chlorothiophen-2-yl)methyl)amino)-2-oxoethyl)-6-oxo-2-phenyl-1,6-dihydro-pyrimidin-5-yl)-5-phenylthio-phene-2-carboxamide], for which the IC50 is above 1000 nM.
Regarding `O=C(Cn1c(-c2ccc(N3CCOCC3)nc2)ncc(NCc2ccc3oc4ccccc4c3c2)c1=O)NCc1cc2cnccc2[nH]1` [Compound 279, N-((1H-pyrrolo[3,2-c]pyridin-2-yl)methyl)-2-(5-((dibenzo [b,d]furan-2-ylmethyl)amino)-2-(6-morpholinopyridin-3-yl)-6-oxopyrimidin-1(6H)-yl)-acetamide], the IC50 is below 100 nM.
Consider `O=C(Cn1c(-c2ccc(OC3CCOCC3)cc2)ncc(NCc2ccc3oc4ccccc4c3c2)c1=O)NCc1cc2cnccc2[nH]1` [Compound 280, N-((1H-pyrrolo[3,2-c]pyridin-2-yl)methyl)-2-(5-((dibenzo [b,d]furan-2-ylmethyl)amino)-6-oxo-2-(4-((tetrahydro-2H-pyran-4-yl)oxy)phenyl)pyrimi-din-1(6H)-yl)acetamide], for which the IC50 was below 100 nM.
With `O=C(Cn1c(N2CC(F)(F)C2)ncc(NCc2ccc3oc4ccccc4c3c2)c1=O)NCc1cc2cnccc2[nH]1` [Compound 281, N-((1H-pyrrolo[3,2-c]pyridin-2-yl)methyl)-2-(5-((dibenzo [b,d]furan-2-ylmethyl)amino)-2-(3,3-difluoroazetidin-1-yl)-6-oxopyrimidin-1(6H)-yl)acet-amide], the IC50 is below 100 nM.
`C[C@H](Nc1ncc(-c2ccccc2)n(CC(=O)NCc2cc3cnccc3[nH]2)c1=O)c1ccc2oc3ccccc3c2c1` [Compound 282, (S)—N-((1H-pyrrolo[3,2-c]pyridine-2-yl)methyl)-2-(3-((1-(dibenzo[b,d]furan-2-yl)ethyl)amino)-2-oxo-6-phenylpyrazin-1(2H)-yl)acetamide]: the concentration for half-maximal inhibition (IC50) is below 100 nM.
For `C[C@H](Nc1cnc(-c2cnn(C)c2)n(CC(=O)NCc2cc3cnccc3[nH]2)c1=O)c1ccc2oc3ccccc3c2c1` [Compound 283, (S)-N-((1H-pyrrolo[3,2-c]pyr-idin-2-yl)methyl)-2-(5-((1-(dibenzo[b,d]furan-2-yl)ethyl)-amino)-2-(1-methyl-1H-pyr-azol-4-yl)-6-oxopyrimidin-1(6H)-yl)acetamide], the concentration for half-maximal inhibition (IC50) was below 100 nM.
For the molecule `C[C@H](Nc1cnc(N2CCCCC2)n(CC(=O)NCc2cc3cnccc3[nH]2)c1=O)c1ccc2oc3ccccc3c2c1` [Compound 284, (S)-N-((1H-pyrrolo[3,2-c]pyr-idin-2-yl)methyl)-2-(5-((1-(dibenzo[b,d]furan-2-yl)ethyl)-amino)-6-oxo-2-(piperidin-1-yl)pyrimidin-1(6H)-yl)acet-amide], the IC50 was below 100 nM.
For the molecule `C[C@H](Nc1cnc(-c2ccccn2)n(CC(=O)NCc2cc3cnccc3[nH]2)c1=O)c1ccc2oc3ccccc3c2c1` [Compound 285, (S)—N-((1H-pyrrolo[3,2-c]pyridine-2-yl)methyl)-2-(5-((1-(dibenzo[b,d]furan-2-yl)ethyl)amino)-6-oxo-2-(pyridine-2-yl)pyrimidin-1(6H)-yl)acetamide], the IC50 was below 100 nM.
For the molecule `C[C@H](Nc1cnc(-c2cccs2)n(CC(=O)NCc2cc3cnccc3[nH]2)c1=O)c1ccc2oc3ccccc3c2c1` [Compound 286, (S)-N-((1H-pyrrolo[3,2-c]pyr-idin-2-yl)methyl)-2-(5-((1-(dibenzo[b,d]furan-2-yl)ethyl)-amino)-6-oxo-2-(thiophen-2-yl)pyrimidin-1(6H)-yl)acet-amide], the concentration for half-maximal inhibition (IC50) was below 100 nM.
In the case of `Cn1cc(-c2ncc(NCc3ccc4oc5ccccc5c4c3)c(=O)n2CC(=O)NCc2cc3cnccc3[nH]2)cn1` [Compound 287, N-((1H-pyrrolo[3,2-c]pyridin-2-yl)methyl)-2-(5-((dibenzo [b,d]furan-2-ylmethyl)amino)-2-(1-methyl-1H-pyrazol-4-yl)-6-oxopyrimidin-1(6H)-yl)-acetamide], the IC50 was below 100 nM.
On to `C[C@H](Nc1cnc(-c2ccc(O[C@@H]3CO[C@H]4[C@@H]3OC[C@H]4O)cc2)n(CC(=O)NCc2cc3cnccc3[nH]2)c1=O)c1ccc2oc3ccccc3c2c1` [Compound 288, N-((1H-pyrrolo[3,2-c]pyridin-2-yl)methyl)-2-(5-(((S)-1-(dibenzo[b,d]furan-2-yl)ethyl)-amino)-2-(4-(((3R,3aR,6R, 6aR)-6-hydroxyhexahydrofuro [3,2-b]furan-3-yl)oxy)phenyl)-6-oxopyrimidin-1(6H)-yl)acet-amide], for which the IC50 is below 100 nM.
Regarding `O=C(Cn1c(-c2ccncc2)ncc(NCc2ccc3oc4ccccc4c3c2)c1=O)NCc1cc2cnccc2[nH]1` [Compound 289, N-((1H-pyrrolo[3,2-c]pyridin-2-yl)methyl)-2-(5-((dibenzo [b,d]furan-2-ylmethyl)amino)-6-oxo-2-(pyridin-4-yl)pyrimi-din-1(6H)-yl)acetamide], the IC50 is below 100 nM.
